Assays:
[1] = tested on: Human monocyte derived dendritic cells; assay: Inhibition of human monocyte derived dendritic cell cytokine release, IL-12; format: cell-based; settings: 18 h
From the text: (§1) Following stimulation through the toll-like receptors (TLR) DCs express and release proinflammatory cytokines and chemokines and may induce activation and proliferation of naïve T cells. The binding of an EP2 agonist to the DC EP receptor inhibits TLR4 ligand (LPS) stimulated Interleukin 12 (IL-12) release. […] Therefore an EP2 agonist skews the CD4 T cell differentiation away from the Th- lineage.
IL-12 is a 75 kDa glycoprotein heterodimer (p70) composed of two genetically unrelated subunits linked by a disulfide bond. Enzyme linked immuno sorbant assays (ELISA) based on antibodies specific to IL-12 p70 are commercially available. Standards and samples are pipetted into the wells of a microplate. An antibody specific to human IL-12 is added to the wells. A substrate is added to the wells and color develops in proportion to the amount of IL-12 bound. The intensity of the color is measured.
(§2) Human monocyte derived dendritic cells are isolated from human donors using a Ficoll density gradient and residual erythrocytes removed by selective lysis. CD14 MicroBeads are used for separation of human cells based on the expression of the CD14 antigen. The dendritic cells are cultured at approximately 1.5 x 10^6 cells per ml in RPMI 1640 with fetal bovine serum, 200 ng/ml GM-CSF (Leukine) and 10 ng/ml IL-4. The cells grow-for a period of 3 days and then the media is changed. 10ng/ml LPS is used to activate the cells. 1µM of substance (EP2 agonist) and 1µM of PGE2 are added during the LPS stimulation. Cells are incubated for approximately 18 hr at 37C. IL-12 and II-10 released during activation is measured by ELISA.

[2] = tested on: Human monocyte derived dendritic cells; assay: Human monocyte derived dendritic cell cytokine release, IL-10; format: cell-based; settings: 18 h
From the text: as §1
IL-10 initially designated cytokine synthesis inhibitory factor (CSIF), was originally identified as a product of Th-2 clones that suppressed the production of cytokines by Th-1 clones responding to stimulation by antigen in the presence of antigen-presenting cells. IL-10 is a dimer composed of two identical 160 amino acid subunits. Enzyme linked immuno sorbant assays (ELISA) based on antibodies specific to IL-10 are commercially available. Standards and samples are pipetted into the wells of a microplate. An antibody specific to human IL-10 is added to the wells. A substrate is added to the wells and color develops in proportion to the amount of IL-10 bound. The intensity of the color is measured.
as §2

[3] = Donor 1, read-out: % inhibition below untreated, LPS- stimulated control
[4] = Donor 2, read-out: % inhibition below untreated, LPS- stimulated control
[5] = Donor 3, read-out: % inhibition below untreated, LPS- stimulated control

**Q.** For CCCCC[C@H](O)/C=C/[C@H]1[C@H](O)CC(=O)[C@@H]1C/C=C\CCCC(=O)O [PGE2, prostaglandin E2], which inhibition at 1 µM [1, 3] is on record?
**A.** Its inhibition at 1 µM is 78%.

**Q.** And the inhibition at 1 µM [1, 4]?
**A.** The inhibition at 1 µM was 44%.

**Q.** And the inhibition at 1 µM [1, 5]?
**A.** The inhibition at 1 µM was 84%.

**Q.** What about the inhibition at 1 µM ([1]; Donor 4, read-out: % inhibition below untreated, LPS- stimulated control) of the same compound?
**A.** Its inhibition at 1 µM is 29%.

**Q.** What about the inhibition at 1 µM [2, 3] of the same compound?
**A.** The inhibition at 1 µM was 103%.

**Q.** And the inhibition at 1 µM [2, 4]?
**A.** Its inhibition at 1 µM is 134%.

**Q.** And the inhibition at 1 µM [2, 5]?
**A.** Its inhibition at 1 µM is 107%.
